Reference: patent publication US9604925B2, “Class II HMG-CoA reductase inhibitors and methods of use” (Purdue Research Foundation, priority 2012, dated 2017)
Converted amounts (≈) assume the structure as drawn. Marks after values point to notes of the source that are not given here.

Key:
[1] = test system: Staphylococcus aureus ATCC 6538 adherent organisms (biofilm); experiment: MIC/MBC in adherent-cell biofilm of S. aureus ATCC 6538; assay type: cell-based; settings: for Adherent organisms (biofilm) MIC^b: S. aureus ATCC 6538, 20 h; for Adherent organisms (biofilm) MBC^b: S. aureus ATCC 6538, regrowth 20 h in antibiotic-free MHB
Experimental: An adherent biofilm for susceptibility testing was formed using a clinical isolate of Staphylococcus aureus (ATCC 6538). S. aureus biofilms were prepared in a tissue culture non-treated polystyrene 96-well plate (Corning) and washed with phosphate-buffered saline (PBS) to remove unbound bacteria. Subsequently, serial twofold dilutions of the compounds in MHB were added to wells containing adherent organisms. The polystyrene plates were incubated for 20 h at 37° C. The MIC was taken as the lowest drug concentration at which observable growth was inhibited.

[2] = test system: C. elegans infected with VRE; experiment: Treatment of C. elegans infected with VRE; settings: VRE-infected worms, 100 μM; for Log CFU/worm: 16 hours treatment; for Log Reduction: versus DMSO control
S. aureus HMGR = S. aureus HMGR (Staphylococcus aureus, UniProt Q9FD86); experiment: biochemical
S. aureus HMGR, sequence (Q9FD86 entry or part of it): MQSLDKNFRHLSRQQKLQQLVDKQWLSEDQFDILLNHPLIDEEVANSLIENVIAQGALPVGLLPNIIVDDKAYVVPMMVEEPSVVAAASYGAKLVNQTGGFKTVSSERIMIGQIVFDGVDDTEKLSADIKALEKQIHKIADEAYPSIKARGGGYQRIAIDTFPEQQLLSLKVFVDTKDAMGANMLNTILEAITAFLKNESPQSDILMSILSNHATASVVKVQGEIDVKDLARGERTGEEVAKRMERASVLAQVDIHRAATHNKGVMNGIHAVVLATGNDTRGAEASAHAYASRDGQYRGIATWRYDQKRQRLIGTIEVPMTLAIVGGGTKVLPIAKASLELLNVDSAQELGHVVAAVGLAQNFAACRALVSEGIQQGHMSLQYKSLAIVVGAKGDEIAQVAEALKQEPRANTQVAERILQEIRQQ

[3] = test system: Staphylococcus aureus ATCC 6538 planktonic organisms (not in biofilm); experiment: MIC/MBC against planktonic S. aureus ATCC 6538; assay type: cell-based
[4] = test system: methicillin-resistant Staphylococcus aureus (MRSA) ATCC 43300; experiment: MIC/MBC micro dilution against MRSA; settings: for MRSA MBC: MRSA ATCC 43300, MHB, 20 hours, Table 2; for MBC / MIC: Staphylococcus aureus; for MBC, μM: MRSA, Table 1
[5] = test system: vancomycin resistant Enterococcus faecalis (VRE) ATCC 51299; experiment: MIC/MBC micro dilution against VRE; settings: VRE ATCC 51299, MHB, 20 hours
J774A.1 cells = experiment: In vitro cell viability/cytotoxicity MTS assay; assay type: cell-based; settings: 100 μM, 24 hours
Experimental: Cytotoxicity of the compounds was evaluated using J774A.1 cells (mitochondrial function) in the CellTiter 96® AQueous Non-Radioactive Cell Proliferation Assay (Promega). […] Formazan is measured by measuring the absorbance at 490 nm. Briefly, ˜2×10^4 J774A.1 cells suspended in 200 μL DMEM supplemented with 10% fetal bovine serum (FBS), L-glutamine, NaHCO3, pyridoxine-HCl, and […] glucose and preserved with 1% penicillin-streptomycin solution were seeded in 96-well plates and incubated at 37° C. in a 5% CO2 atmosphere. The cells were cultured for 24 hours (60% confluency) before the assays. The J774A.1 cells were further incubated with 100 μM of compounds (2f, […], 2j, and 2e) and DMSO as a control for 24 hours. The culture media was discarded, and the cells in each well were washed with PBS and re-suspended with 100 μL of cell culture media prior to addition of the assay reagent. The plates were incubated for 4 hours at 37° C. in a humidified 5% CO2 atmosphere. The absorbance at 490 nm was recorded using a 96-well Elisa plate reader (SoftMax ProInc., USA). Results were expressed as the percentage mean absorbance by cells upon incubation with various treatments (compounds 2f, 2j, 2i, and 2e) with respect to incubation with DMSO. The results are expressed as means from six measurements±SD.

[6] = test system: Candida albicans ATCC 18804; experiment: MIC/MFC against Candida albicans in YM broth; assay type: cell-based; settings: yeast medium broth
Experimental: Antifungal activities of 22 HMG-CoA Reductase inhibitors were initially tested at 100 μM concentration against Candida albicans ATCC 18804.

[7] = test system: vancomycin intermediate Staphylococcus aureus (VISA) NRS1; experiment: MIC/MBC against clinical VISA isolate
[8] = test system: clinical methicillin-resistant Staphylococcus aureus (MRSA) isolates; experiment: MIC/MBC against clinical MRSA isolates
[9] = test system: C. elegans infected with MRSA; experiment: Treatment of C. elegans infected with MRSA; settings: MRSA-infected worms, 100 μM; for Log CFU/worm: 16 hours treatment; for Log Reduction: versus DMSO control

CC(=O)NC[C@H]1CN(c2ccc(N3CCOCC3)c(F)c2)C(=O)O1 [Linezolid, linezolid, reference compound]
Adherent organisms (biofilm) MIC^b [1]: 4 µM
Adherent organisms (biofilm) MBC^b [1]: 16 µM
Log CFU/worm [2]: 1.47 ± 0.06 Log CFU/worm
Log Reduction [2]: 3.43*

CCCCCCc1ccc(NS(=O)(=O)c2ccc(O)c(C(=O)O)c2)cc1 [Compound 2d, 5-[N-(4-hexylphenyl)sulfamoyl]-2-hydroxybenzoic acid]
IC50 (S. aureus HMGR): 77 ± 6 µM
Planktonic organisms (not in biofilm) MBC [3]: 128 µM
Planktonic organisms (not in biofilm) MIC [3]: 128 µM
Adherent organisms (biofilm) MIC^b [1]: 128 µM
Adherent organisms (biofilm) MBC^b [1]: >128 µM
MRSA MBC [4]: 128/128
MBC [4]: 128 µM (≈ 48.3 µg/mL)
MIC [4]: 128 µM (≈ 48.3 µg/mL)

CC(C)(C)CCc1ccc(NS(=O)(=O)c2ccc(O)c(C(=O)O)c2)cc1 [Compound 2k, 5-[N-(4-(3,3-dimethylbutyl)phenyl)sulfamoyl]-2-hydroxybenzoic acid]
VRE MBC [5]: 128/128
MBC, μM [4]: failed to exhibit any activity

CCCCCCCCCCCCc1ccc(NS(=O)(=O)c2ccc(O)c(C(=O)O)c2)cc1 [Compound 2g, 5-[N-(4-dodecylphenyl)sulfamoyl]-2-hydroxybenzoic acid]
IC50 (S. aureus HMGR): 5.9 ± 0.5 µM
VRE MBC [5]: 128/128
MRSA MBC [4]: 128/>128
MBC [4]: 128 µM (≈ 59.1 µg/mL)
MIC [4]: 128 µM (≈ 59.1 µg/mL)

O=C(O)c1cc(S(=O)(=O)Nc2ccc(CCc3ccccc3)cc2)ccc1O [Compound 2m, 2-hydroxy-5-[N-(4-phenethylphenyl)sulfamoyl]benzoic acid]
MBC, μM [4]: no enzymatic inhibition or bactericidal activity

CCCCCc1ccc(NS(=O)(=O)c2ccc(O)c(C(=O)O)c2)cc1 [Compound 2c, 2-hydroxy-5-[N-(4-pentylphenyl)sulfamoyl]benzoic acid]
IC50 (S. aureus HMGR): 98 ± 3 µM

CCCCCCCc1ccc(NS(=O)(=O)c2ccc(O)c(C(=O)O)c2)cc1 [Compound 2e, 5-[N-(4-heptylphenyl)sulfamoyl]-2-hydroxybenzoic acid]
IC50 (S. aureus HMGR): 28 µM
percentage mean absorbance at 490 nm (MTS) versus DMSO (J774A.1 cells): no significant differences in percentage mean absorption
Candida albicans MFC [6]: 128 µM
Candida albicans MIC [6]: 64 µM
Planktonic organisms (not in biofilm) MBC [3]: 64 µM
Planktonic organisms (not in biofilm) MIC [3]: 64 µM
Adherent organisms (biofilm) MIC^b [1]: 64 µM
Adherent organisms (biofilm) MBC^b [1]: 128 µM
VRE MBC [5]: 64/64
MRSA MBC [4]: 64/64
MBC [4]: 64 µM (≈ 25.1 µg/mL)
MIC [4]: 64 µM (≈ 25.1 µg/mL)
MBC [7]: 16 µM (≈ 6.26 µg/mL)
MIC [7]: 16 µM (≈ 6.26 µg/mL)
MBC ([8]; MRSA / NRS123 / USA400): 32 µM (≈ 12.5 µg/mL)
MIC ([8]; MRSA / NRS123 / USA400): 32 µM (≈ 12.5 µg/mL)
MBC ([8]; MRSA / NRS382 / USA100): 32 µM (≈ 12.5 µg/mL)
MIC ([8]; MRSA / NRS382 / USA100): 32 µM (≈ 12.5 µg/mL)
MBC ([8]; MRSA / NRS383 / USA200): 32 µM (≈ 12.5 µg/mL)
MIC ([8]; MRSA / NRS383 / USA200): 16 µM (≈ 6.26 µg/mL)
MBC ([8]; MRSA / NRS384 / USA300): 32 µM (≈ 12.5 µg/mL)
MIC ([8]; MRSA / NRS384 / USA300): 32 µM (≈ 12.5 µg/mL)
MBC ([8]; MRSA / NRS385 / USA500): 16 µM (≈ 6.26 µg/mL)
MIC ([8]; MRSA / NRS385 / USA500): 16 µM (≈ 6.26 µg/mL)
MBC ([8]; MRSA / NRS386 / USA700): 32 µM (≈ 12.5 µg/mL)
MIC ([8]; MRSA / NRS386 / USA700): 32 µM (≈ 12.5 µg/mL)
MBC ([8]; MRSA / NRS387 / USA800): 32 µM (≈ 12.5 µg/mL)
MIC ([8]; MRSA / NRS387 / USA800): 16 µM (≈ 6.26 µg/mL)
MBC ([8]; MRSA / NRS483): 32 µM (≈ 12.5 µg/mL)
MIC ([8]; MRSA / NRS483): 16 µM (≈ 6.26 µg/mL)
MBC ([8]; MRSA / NRS484): 32 µM (≈ 12.5 µg/mL)
MIC ([8]; MRSA / NRS484): 16 µM (≈ 6.26 µg/mL)
Log CFU/worm [2]: 0.86 ± 1.03 Log CFU/worm
Log Reduction [2]: 4.04*
Log CFU/worm [9]: 1.80 ± 0.10 Log CFU/worm
Log Reduction [9]: 3.24*

CCCCc1ccc(NS(=O)(=O)c2ccc(OCC(N)=O)c(C(=O)O)c2)cc1 [Compound 3, 5-[N-(4-butylphenyl)sulfamoyl]-2-(carbamoylmethoxy)benzoic acid]
MBC, μM [4]: failed to show any enzymatic inhibition or bactericidal activity

O=C(O)c1cc(S(=O)(=O)Nc2ccc(CCC3CCCCC3)cc2)ccc1O [Compound 2l, 5-[N-(4-(2-cyclohexylethyl)phenyl)sulfamoyl]-2-hydroxybenzoic acid]
IC50 (S. aureus HMGR): 16.2 ± 10 µM
VRE MBC [5]: 64/64
MRSA MBC [4]: 32/32
MBC [4]: 32 µM (≈ 12.9 µg/mL)
MIC [4]: 32 µM (≈ 12.9 µg/mL)
MBC [7]: 16 µM (≈ 6.46 µg/mL)
MIC [7]: 16 µM (≈ 6.46 µg/mL)
MBC ([8]; MRSA / NRS123 / USA400): 16 µM (≈ 6.46 µg/mL)
MIC ([8]; MRSA / NRS123 / USA400): 16 µM (≈ 6.46 µg/mL)
MBC ([8]; MRSA / NRS382 / USA100): 16 µM (≈ 6.46 µg/mL)
MIC ([8]; MRSA / NRS382 / USA100): 16 µM (≈ 6.46 µg/mL)
MBC ([8]; MRSA / NRS383 / USA200): 16 µM (≈ 6.46 µg/mL)
MIC ([8]; MRSA / NRS383 / USA200): 16 µM (≈ 6.46 µg/mL)
MBC ([8]; MRSA / NRS384 / USA300): 16 µM (≈ 6.46 µg/mL)
MIC ([8]; MRSA / NRS384 / USA300): 16 µM (≈ 6.46 µg/mL)
MBC ([8]; MRSA / NRS385 / USA500): 16 µM (≈ 6.46 µg/mL)
MIC ([8]; MRSA / NRS385 / USA500): 16 µM (≈ 6.46 µg/mL)
MBC ([8]; MRSA / NRS386 / USA700): 16 µM (≈ 6.46 µg/mL)
MIC ([8]; MRSA / NRS386 / USA700): 16 µM (≈ 6.46 µg/mL)
MBC ([8]; MRSA / NRS387 / USA800): 16 µM (≈ 6.46 µg/mL)
MIC ([8]; MRSA / NRS387 / USA800): 16 µM (≈ 6.46 µg/mL)
MBC ([8]; MRSA / NRS483): 16 µM (≈ 6.46 µg/mL)
MIC ([8]; MRSA / NRS483): 8 µM (≈ 3.23 µg/mL)
MBC ([8]; MRSA / NRS484): 16 µM (≈ 6.46 µg/mL)
MIC ([8]; MRSA / NRS484): 16 µM (≈ 6.46 µg/mL)
Log CFU/worm [2]: 0.43 ± 0.68 Log CFU/worm
Log Reduction [2]: 4.47*
Log CFU/worm [9]: 2.20 ± 0.43 Log CFU/worm
Log Reduction [9]: 2.84*

CCc1ccc(NS(=O)(=O)c2ccc(O)c(C(=O)O)c2)cc1 [Compound 2a, 5-[N-(4-ethylphenyl)sulfamoyl]-2-hydroxybenzoic acid]
IC50, μM (S. aureus HMGR): ^d (No significant inhibition of HMGR activity was observed at the concentrations tested.)

CCCc1ccc(NS(=O)(=O)c2ccc(O)c(C(=O)O)c2)cc1 [Compound 2b, 2-hydroxy-5-[N-(4-propylphenyl)sulfamoyl]benzoic acid]
IC50, μM (S. aureus HMGR): ^d (No significant inhibition of HMGR activity was observed at the concentrations tested.)

CC(C)CCCc1ccc(NS(=O)(=O)c2ccc(O)c(C(=O)O)c2)cc1 [Compound 2i, 2-hydroxy-5-[N-(4-(4-methylpentyl)phenyl]sulfamoyl)benzoic acid]
IC50 (S. aureus HMGR): 36 ± 4 µM
percentage mean absorbance at 490 nm (MTS) versus DMSO (J774A.1 cells): no significant differences in percentage mean absorption
Planktonic organisms (not in biofilm) MBC [3]: 128 µM
Planktonic organisms (not in biofilm) MIC [3]: 128 µM
Adherent organisms (biofilm) MIC^b [1]: 128 µM
Adherent organisms (biofilm) MBC^b [1]: 128 µM
MIC [4]: 64 µM (≈ 24.2 µg/mL)

CCCCCCCCCCCCCCc1ccc(NS(=O)(=O)c2ccc(O)c(C(=O)O)c2)cc1 [Compound 2h, 2-hydroxy-5-[N-(4-tetradecylphenyl)sulfamoyl]benzoic acid]
IC50 (S. aureus HMGR): 1.9 µM
improvement of IC50 over lead compound 1 (S. aureus HMGR): 45 fold
MBC, μM [4]: lost bactericidal activity
